Source: ChEMBL document CHEMBL1201862, “PubChem BioAssay data set” (2004)
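Tested at 5 concentrations; 48 h exposure; 96-well plates; endpoints linearly interpolated, else capped at highest concentration. GI50: concentration for 50% inhibition of growth.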 Activity calls are given as the source filed them. Cut-off read from the data, not from the text of the source: active = GI50 up to about 1.1 µM and inactive = higher.

Columns and labels:
Assay in all cases: DTP human tumour cell line panel, 48 h
BT-549 = tested on: BT-549
DLD-1 = tested on: DLD-1
DMS-114 = tested on: DMS-114
DMS-273 = tested on: DMS-273
KM-20L2 = tested on: KM-20L2
M19-MEL = tested on: M19-MEL
SNB-78 = tested on: SNB-78
HOP-18 = tested on: HOP-18

## CCOC(=O)C(NC(=O)c1ccccc1)(N1CCOCC1)C(F)(F)F (centres undefined)
BT-549
  GI50: > 100 µM (inactive)

## O=C1NCN(c2ccccc2)C12CCN(CCc1ccc3[nH]c(=S)[nH]c3c1)CC2
BT-549
  GI50: 30.5 µM (inactive)

## O=C(/N=C(/Nc1ccccc1)SCCS/C(=N\C(=O)c1ccccc1)Nc1ccccc1)c1ccccc1
DLD-1
  GI50: 49.8 µM (inactive)
DMS-114
  GI50: 35.7 µM (inactive)
DMS-273
  GI50: 78.3 µM (inactive)
KM-20L2
  GI50: 68.9 µM (inactive)
M19-MEL
  GI50: 63.5 µM (inactive)
SNB-78
  GI50: > 100 µM (inactive)

## O=C1NC2(CCCC2)/C(=N\O)C12CCCC2
DLD-1
  GI50: > 100 µM (inactive)
DMS-114
  GI50: > 100 µM (inactive)
DMS-273
  GI50: > 100 µM (inactive)
HOP-18
  GI50: > 100 µM (inactive)
M19-MEL
  GI50: > 100 µM (inactive)
SNB-78
  GI50: > 100 µM (inactive)

## CC(C)(C)OC(=O)N(O)CCCn1cnc2c(N)ncnc21
BT-549
  GI50: > 100 µM (inactive)

## CCN(CC)C(=O)Cn1c2c(c3ccccc31)CCCC2
BT-549
  GI50: > 100 µM (inactive)

## Cc1cc(C)nc(NC(=S)Nc2cccc(Cl)c2)c1
BT-549
  GI50: > 100 µM (inactive)

## CCN(CC)CCNC(=O)c1cn2c(ccc3sc4ccccc4c(=O)c32)n1
BT-549
  GI50: 13.8 µM (inactive)

## Cc1ccccc1[P+](C)(c1ccccc1C)c1ccccc1C
BT-549
  GI50: 7.48 µM (inactive)

## CC(=O)O[C@H]1CC2C=CC3C(CCC31)O2 (some centres undefined)
DLD-1
  GI50: > 100 µM (inactive)
DMS-114
  GI50: > 100 µM (inactive)
DMS-273
  GI50: > 100 µM (inactive)
HOP-18
  GI50: > 100 µM (inactive)
KM-20L2
  GI50: > 100 µM (inactive)
M19-MEL
  GI50: > 100 µM (inactive)
SNB-78
  GI50: > 100 µM (inactive)

## COc1ccc([C@H]2[C@H](C)C3=Nc4ccccc4CN32)cc1
BT-549
  GI50: > 100 µM (inactive)

## C=C1C(=O)OC2CC1C(OC(=O)/C=C/c1ccccc1)C/C(C)=C/CC/C(C)=C/CCC2(C)O (centres undefined)
BT-549
  GI50: 1.05 µM (active)

## O=S(=O)(O)c1ccc2c(/N=N\c3ccc(F)cc3)c(O)c(S(=O)(=O)O)cc2c1
BT-549
  GI50: > 100 µM (inactive)

## Cc1ccc(S(=O)(=O)N2CCN(S(=O)(=O)c3ccc(C)cc3)CCN(S(=O)(=O)c3ccc(C)cc3)Cc3cc(Br)c(Br)cc3CN(S(=O)(=O)c3ccc(C)cc3)CC2)cc1
BT-549
  GI50: > 100 µM (inactive)

## CCOC(=O)c1c(SCC#N)n(-c2ccccc2)c(=S)n(-c2ccccc2)c1=O
BT-549
  GI50: 36.1 µM (inactive)

## O=C(N/N=C/c1ccc([N+](=O)[O-])cc1)c1cccc2nc3ccccc3nc12
BT-549
  GI50: > 55.8 µM (inactive)

## Cc1ccc(O)c(C(c2cccc(C(c3cc(C)ccc3O)c3cc(C)ccc3O)c2)c2cc(C)ccc2O)c1
BT-549
  GI50: 2.43 µM (inactive)

## O=C(NN=C1NCCCN1)c1ccco1
BT-549
  GI50: > 100 µM (inactive)

## CC1=NC2(CCCCC2)N(Cl)C(=O)C1SC#N (centres undefined)
BT-549
  GI50: 14.4 µM (inactive)

## O=c1oc(-c2ccccc2)c(-c2ccccc2)n1-c1ccc(Br)cc1
BT-549
  GI50: 25.5 µM (inactive)

## Cc1nc2ccc(S(=O)(=O)Nc3ccc(Cl)cc3)cc2c(=O)n1NC(=O)CNc1ccc(Cl)cc1
BT-549
  GI50: > 100 µM (inactive)

## CC(=O)C1=CN=C2C(=O)N(c3ccccc3)N(C)C12C (centres undefined)
BT-549
  GI50: > 100 µM (inactive)

## COC(=O)C1(SC)C2CCC3C2CCC31 (centres undefined)
BT-549
  GI50: > 100 µM (inactive)

## CC(=O)/N=C1\NC(=O)/C(=C/c2ccccc2Cl)N1C
BT-549
  GI50: > 100 µM (inactive)

## NC(Cc1ccc(S(=O)(=O)O)cc1)C(=O)NC(Cc1ccc(S(=O)(=O)O)cc1)C(=O)O (centres undefined)
BT-549
  GI50: > 100 µM (inactive)

## COc1cnc2oc3ccc(O)cc3c2c1-c1ccccc1
BT-549
  GI50: > 100 µM (inactive)

## CC(C)/C=C1\CCC(CN2CCCC2)C1=O (centres undefined)
DLD-1
  GI50: 3.88 µM (inactive)
DMS-114
  GI50: 12.9 µM (inactive)
HOP-18
  GI50: 7.73 µM (inactive)
KM-20L2
  GI50: 18.5 µM (inactive)
M19-MEL
  GI50: 24.1 µM (inactive)
SNB-78
  GI50: 21 µM (inactive)

## CC1(C)OC[C@@H](C[C@H](O)COCc2ccccc2)O1
BT-549
  GI50: > 100 µM (inactive)

## CC(C)C1C(=O)NC(CO)Cc2c[nH]c3c(C(c4c[nH]c5ccccc45)C(O)CO)ccc(c23)N1C (centres undefined)
DLD-1
  GI50: > 100 µM (inactive)
DMS-273
  GI50: > 100 µM (inactive)
HOP-18
  GI50: 5.56 µM (inactive)
M19-MEL
  GI50: > 100 µM (inactive)
SNB-78
  GI50: 54.7 µM (inactive)

## COc1cc(Cc2cnc(N)nc2N)cc(OC)c1OCCCNc1ccc([N+](=O)[O-])cc1
BT-549
  GI50: 10.5 µM (inactive)

## NCCOCn1cc(Cc2cccc(OCc3ccccc3)c2)c(=O)[nH]c1=O
DLD-1
  GI50: > 100 µM (inactive)
DMS-114
  GI50: 77.1 µM (inactive)
DMS-273
  GI50: 70 µM (inactive)
HOP-18
  GI50: > 100 µM (inactive)
KM-20L2
  GI50: > 100 µM (inactive)
SNB-78
  GI50: > 100 µM (inactive)

## CC(=O)OC[C@@H](OC(C)=O)[C@H](OC(C)=O)[C@@H]1OC(C)(C)O[C@@H]1C1SCCCS1
BT-549
  GI50: > 100 µM (inactive)

## OC(C/C(=N\N=C(/CC(O)(C(F)(F)F)C(F)(F)F)c1ccccc1)c1ccccc1)(C(F)(F)F)C(F)(F)F
BT-549
  GI50: > 10 µM (inactive)

## COC(=O)C[C@@H]1C(C)(C)[C@@H]2O[C@@]34C[C@@H]2C(=O)[C@]1(C)[C@H]3CC[C@@]1(C)[C@H](c2ccoc2)OC(=O)C[C@]14O
BT-549
  GI50: > 100 µM (inactive)

## O=C1CSC2(CC(/C=C/c3ccccc3[N+](=O)[O-])=NN2c2cccc(S(=O)(=O)O)c2)N1c1nc2ccccc2s1 (centres undefined)
BT-549
  GI50: 17.3 µM (inactive)

## O=C1CC[C@@H](NC(=O)Cc2ccccc2)C(=O)N1
DLD-1
  GI50: > 100 µM (inactive)
DMS-273
  GI50: > 100 µM (inactive)
HOP-18
  GI50: > 100 µM (inactive)
KM-20L2
  GI50: > 100 µM (inactive)
M19-MEL
  GI50: > 100 µM (inactive)

## COC(=O)N/N=C(/CCN1CCCC1)CC(c1ccccc1)c1c(O)c2ccccc2oc1=O (centres undefined)
DLD-1
  GI50: > 100 µM (inactive)
DMS-273
  GI50: > 100 µM (inactive)
HOP-18
  GI50: > 100 µM (inactive)
KM-20L2
  GI50: > 100 µM (inactive)
M19-MEL
  GI50: > 100 µM (inactive)
SNB-78
  GI50: > 100 µM (inactive)

## COc1ccc(OC)c([N+](=O)[O-])c1-c1nc2sccn2c1/C=N/N=C(N)N
BT-549
  GI50: 53.2 µM (inactive)

## COC1=CC(=O)C2C(C1=O)C(c1ccccc1)[C@H]2C (some centres undefined)
DLD-1
  GI50: > 10 µM (inactive)
DMS-273
  GI50: > 100 µM (inactive)
SNB-78
  GI50: > 10 µM (inactive)

## C[N+](CCCl)(CCCl)Cc1cccc2cccc([N+](=O)[O-])c12
BT-549
  GI50: > 100 µM (inactive)

## CN(C)c1ccc(/C=C2\N=C(NN)NC2=O)cc1
BT-549
  GI50: > 100 µM (inactive)

## CCOC(=O)c1cc(C2CCN(CC(C)CC)C2=S)c(C(=O)/C=C(/C)N)[nH]1 (centres undefined)
BT-549
  GI50: > 50 µM (inactive)

## CCOc1ccc(N(CC(=O)N2CC(=O)Nc3cc(C)c(C)cc32)C(C)=O)cc1
DLD-1
  GI50: > 100 µM (inactive)
DMS-273
  GI50: > 100 µM (inactive)
HOP-18
  GI50: > 100 µM (inactive)
KM-20L2
  GI50: > 100 µM (inactive)
M19-MEL
  GI50: > 100 µM (inactive)
SNB-78
  GI50: > 100 µM (inactive)

## O=C(NCCn1ccnn1)Nc1ccccc1
BT-549
  GI50: > 100 µM (inactive)

## CCOC(=O)/C=C1/Nc2cc(F)c(F)cc2NC1=O
BT-549
  GI50: > 100 µM (inactive)

## Cc1nn(C(=O)Cc2ccccc2)c2c1C(c1ccc(O)cc1)SC(=N)N2 (centres undefined)
BT-549
  GI50: > 100 µM (inactive)

## Brc1ccc(C2SCc3nc4ccccc4n32)cc1 (centres undefined)
DLD-1
  GI50: 10.5 µM (inactive)
HOP-18
  GI50: 45.5 µM (inactive)
M19-MEL
  GI50: 12.4 µM (inactive)
SNB-78
  GI50: 6.32 µM (inactive)

## C1=C[C@@H]2c3ccc4cnccc4c3NC[C@@H]2C1
BT-549
  GI50: > 100 µM (inactive)

## COC(=O)[C@@]12CC3CN(Cc4c1[nH]c1ccccc41)C2CC3=O
BT-549
  GI50: > 100 µM (inactive)

## COC(=O)C1C(=O)C(C(=O)OC)C2CCC1N2C (centres undefined)
BT-549
  GI50: 0.628 µM (active)

## Cc1cc(O)c2c(c1)CC(O)C1=C2C(=O)c2c(O)ccc(OC3CC(O)C(OC4CC(OC5CCC(O)C(C)O5)C(O)C(C)O4)C(C)O3)c2C1=O (centres undefined)
BT-549
  GI50: 1.86 µM (inactive)

## Cc1cc(S(=O)(=O)Nc2nc(N)n(-c3ccccn3)n2)c(S)cc1Cl
BT-549
  GI50: > 100 µM (inactive)

## COC(=O)c1cc(C#N)[nH]c1-c1ccsc1
BT-549
  GI50: 58.7 µM (inactive)

## O=C(OCCNC(=O)N1CC1)OCCNC(=O)N1CC1
BT-549
  GI50: > 10 µM (inactive)

## O=c1[nH]c(=S)[nH]cc1CN1CCOCC1
BT-549
  GI50: > 100 µM (inactive)
